In ChEMBL document CHEMBL3217670, “Structures and biofilm inhibition activities of brominated furanones for Escherichia coli and Pseudomonas aeruginosa” (Medchemcomm, 2013):
Active and inactive are the calls of the source. No cut-off for these calls is given here.

Experiments:
Escherichia coli [1] = assay: Antimicrobial activity against sdiA-knockout Escherichia coli AY1297 assessed as inhibition of planktonic growth at 200 uM measured for 2 to 24 hrs; assay type: organism-based; details: in vivo
Escherichia coli [2] = assay: Inhibition of biofilm formation in wild-type Escherichia coli RP437 at 100 uM; assay type: functional, organism-based
Pseudomonas aeruginosa [3] = assay: Antimicrobial activity against wild-type Pseudomonas aeruginosa PAO1 assessed as inhibition of planktonic growth at 1 to 100 uM measured for 2 to 24 hrs; assay type: organism-based; details: in vivo
Pseudomonas aeruginosa [4] = assay: Antimicrobial activity against wild-type Pseudomonas aeruginosa PAO1 assessed as inhibition of planktonic growth at 200 uM measured for 2 to 24 hrs; assay type: organism-based; details: in vivo
Escherichia coli [5] = assay: Antimicrobial activity against wild-type Escherichia coli RP437 assessed as inhibition of planktonic growth at 1 to 100 uM measured for 2 to 24 hrs; assay type: organism-based; details: in vivo
Pseudomonas aeruginosa [6] = assay: Inhibition of biofilm formation in wild-type Pseudomonas aeruginosa PAO1 at 100 uM; assay type: functional, organism-based
Escherichia coli [7] = assay: Antimicrobial activity against wild-type Escherichia coli RP437 assessed as inhibition of planktonic growth at 200 uM measured for 2 to 24 hrs; assay type: organism-based; details: in vivo
Escherichia coli [8] = assay: Inhibition of biofilm formation in sdiA-knockout Escherichia coli AY1297 expressing red fluorescent protein assessed as effect on surface area of biofilm at 200 uM after 24 hrs by confocal laser scanning microscopic analysis; assay type: functional, organism-based
Escherichia coli [9] = assay: Inhibition of biofilm formation in sdiA-knockout Escherichia coli AY1297 expressing red fluorescent protein assessed as thickness of biofilm at 200 uM after 24 hrs by confocal laser scanning microscopic analysis (reference value: 157 micrometer); assay type: functional
Escherichia coli [10] = assay: Inhibition of biofilm formation in sdiA-knockout Escherichia coli AY1297 at 200 uM after 24 hrs by crystal violet staining-based assay relative to control; assay type: functional
[11] = molecular target: T1, HTH-type quorum-sensing regulator RhlR (Pseudomonas aeruginosa (strain ATCC 15692 / PAO1 / 1C / PRS 101 / LMG12228)) (UniProt P54292); assay: Agonist activity at Pseudomonas aeruginosa PAO1 RhlR expressing rhlI coexpressing LVA-GFP at 100 to 200 uM after 24 hrs by fluorescence assay
T1 sequence (whole entry): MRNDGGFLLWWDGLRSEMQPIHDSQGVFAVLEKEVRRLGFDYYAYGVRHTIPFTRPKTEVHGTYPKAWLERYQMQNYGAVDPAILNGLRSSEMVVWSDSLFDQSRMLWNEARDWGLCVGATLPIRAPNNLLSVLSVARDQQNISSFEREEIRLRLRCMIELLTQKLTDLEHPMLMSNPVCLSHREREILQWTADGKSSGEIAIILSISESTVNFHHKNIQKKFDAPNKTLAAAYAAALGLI

Escherichia coli [12] = assay: Inhibition of biofilm formation in wild-type Escherichia coli RP437 at 200 uM after 24 hrs by scanning electron microscopic analysis; assay type: functional, organism-based
Pseudomonas aeruginosa [13] = assay: Inhibition of biofilm formation in wild-type Pseudomonas aeruginosa PAO1 expressing red fluorescent protein assessed as reduction in biomass at 200 uM after 24 hrs by confocal laser scanning microscopic analysis relative to control; assay type: functional
[14] = molecular target: T2, Transcriptional activator protein LasR (Pseudomonas aeruginosa (strain ATCC 15692 / PAO1 / 1C / PRS 101 / LMG12228)) (UniProt P25084); assay: Antagonist activity at Pseudomonas aeruginosa PAO1 LasR expressing lasI coexpressing LVA-GFP at 100 to 200 uM after 24 hrs by fluorescence assay
T2 sequence (whole entry): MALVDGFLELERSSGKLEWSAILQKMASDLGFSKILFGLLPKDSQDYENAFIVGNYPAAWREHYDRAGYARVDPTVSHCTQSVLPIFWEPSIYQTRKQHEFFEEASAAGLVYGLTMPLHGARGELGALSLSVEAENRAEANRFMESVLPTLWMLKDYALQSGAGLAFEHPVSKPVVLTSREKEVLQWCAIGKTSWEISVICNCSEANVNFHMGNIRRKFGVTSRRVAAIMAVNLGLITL

Escherichia coli [15] = assay: Inhibition of biofilm formation in wild-type Escherichia coli RP437 expressing red fluorescent protein assessed as effect on surface area of biofilm at 200 uM after 24 hrs by confocal laser scanning microscopic analysis; assay type: functional, organism-based
Escherichia coli [16] = assay: Inhibition of biofilm formation in wild-type Escherichia coli RP437 at 200 uM after 24 hrs by crystal violet staining-based assay relative to control; assay type: functional
Escherichia coli [17] = assay: Inhibition of biofilm formation in wild-type Escherichia coli RP437 expressing red fluorescent protein assessed as reduction in biomass at 200 uM after 24 hrs by confocal laser scanning microscopic analysis relative to control; assay type: functional; details: RP437, 24 h
Escherichia coli [18] = assay: Inhibition of biofilm formation in sdiA-knockout Escherichia coli AY1297 expressing red fluorescent protein assessed as reduction in biomass at 200 uM after 24 hrs by confocal laser scanning microscopic analysis relative to control; assay type: functional; details: AY1297, 24 h
Pseudomonas aeruginosa [19] = assay: Inhibition of biofilm formation in wild-type Pseudomonas aeruginosa PAO1 at 200 uM after 24 hrs by crystal violet staining-based assay relative to control; assay type: functional
Escherichia coli [20] = assay: Inhibition of biofilm formation in sdiA-knockout Escherichia coli AY1297 at 200 uM after 24 hrs by scanning electron microscopic analysis; assay type: functional, organism-based
Escherichia coli [21] = assay: Inhibition of biofilm formation in wild-type Escherichia coli RP437 expressing red fluorescent protein assessed as thickness of biofilm at 200 uM after 24 hrs by confocal laser scanning microscopic analysis (reference value: 253 micrometer); assay type: functional
[22] = tested on: Pseudomonas aeruginosa PAO1; assay: Inhibition of quorum sensing system-mediated elastase B production in Pseudomonas aeruginosa PAO1 at 200 uM after 24 hrs by colorimetric assay relative to control
Escherichia coli [23] = assay: Ratio of inhibition of biofilm formation in sdiA-knockout Escherichia coli AY1297 to inhibition of biofilm formation in wild-type Escherichia coli RP437; assay type: functional
Pseudomonas aeruginosa [24] = assay: Antimicrobial activity against wild-type Pseudomonas aeruginosa PAO1 assessed as inhibition of planktonic growth at 100 uM measured for 2 to 24 hrs; assay type: organism-based; details: in vivo
Pseudomonas aeruginosa [25] = assay: Inhibition of biofilm formation in wild-type Pseudomonas aeruginosa PAO1 at 50 uM; assay type: functional, organism-based
Pseudomonas aeruginosa [26] = assay: Inhibition of biofilm formation in wild-type Pseudomonas aeruginosa PAO1 expressing red fluorescent protein assessed as effect on thickness of biofilm at 200 uM after 24 hrs by confocal laser scanning microscopic analysis; assay type: functional, organism-based
Pseudomonas aeruginosa [27] = assay: Antimicrobial activity against wild-type Pseudomonas aeruginosa PAO1 assessed as inhibition of planktonic growth at 300 uM measured for 2 to 24 hrs; assay type: organism-based; details: in vivo
Pseudomonas aeruginosa [28] = assay: Inhibition of biofilm formation in wild-type Pseudomonas aeruginosa PAO1 expressing red fluorescent protein assessed as effect on surface area of biofilm at 200 uM after 24 hrs by confocal laser scanning microscopic analysis; assay type: functional, organism-based
Escherichia coli [29] = assay: Antimicrobial activity against sdiA-knockout Escherichia coli AY1297 assessed as inhibition of planktonic growth at 300 uM measured for 2 to 24 hrs; assay type: organism-based; details: in vivo
Escherichia coli [30] = assay: Inhibition of biofilm formation in sdiA-knockout Escherichia coli AY1297 at 300 uM after 24 hrs by crystal violet staining-based assay relative to control; assay type: functional; details: AY1297, 24 h
Escherichia coli [31] = assay: Inhibition of biofilm formation in wild-type Escherichia coli RP437 at 300 uM after 24 hrs by crystal violet staining-based assay relative to control; assay type: functional; details: RP437, 24 h
Escherichia coli [32] = assay: Antimicrobial activity against wild-type Escherichia coli RP437 assessed as inhibition of planktonic growth at 300 uM measured for 2 to 24 hrs; assay type: organism-based; details: in vivo

`O=C1C=C(Br)/C(=C/Br)O1` was tested, and the “growth inhibition (GI)” value (Escherichia coli [1]) was “Toxic”, the inhibition (Escherichia coli [2]) was “inactive” and the Activity (Pseudomonas aeruginosa [3]) was “Non-toxic”. For the same compound, the “growth inhibition (GI)” value (Pseudomonas aeruginosa [4]) was “Non-toxic”, the Activity (Escherichia coli [5]) was “Non-toxic” and the inhibition (Pseudomonas aeruginosa [6]) was “inactive”. For the same compound, the “growth inhibition (GI)” value (Escherichia coli [7]) was “Toxic”.
In the case of `CC1=C(Br)/C(=C\Br)OC1=O`, the inhibition (Escherichia coli [8]) is reported as “Active”, the Activity (Escherichia coli [9]) is reported as 137 um and the inhibition at 200 µM (Escherichia coli [10]; AY1297, 24 h) is reported as 18%. The “growth inhibition (GI)” value (Escherichia coli [1]) was “Non-toxic”, the Activity [11] was “Active” and the inhibition (Escherichia coli [12]) was “Active”. The inhibition at 200 µM (Pseudomonas aeruginosa [13]; PAO1, 24 h) was 41%, the inhibition [14] was “Active” and the inhibition (Escherichia coli [15]) was “Active”. For the same compound, the “growth inhibition (GI)” value (Pseudomonas aeruginosa [4]) was “Non-toxic”, the inhibition at 200 µM (Escherichia coli [16]; RP437, 24 h) was 50% and the inhibition at 200 µM (Escherichia coli [17]) was 53%. For the same compound, the inhibition at 200 µM (Escherichia coli [18]) was 36%, the “growth inhibition (GI)” value (Escherichia coli [7]) was “Non-toxic” and the inhibition at 200 µM (Pseudomonas aeruginosa [19]; PAO1, 24 h) was 43%. The inhibition (Escherichia coli [20]) was “inactive”, the Activity (Escherichia coli [21]) was 126 um and the inhibition [22] was 43%. It also gave a Ratio (Escherichia coli [23]) of 2.
With `O=C1C=C/C(=C/Br)O1` the “growth inhibition (GI)” value (Escherichia coli [1]) was “Non-toxic”, the inhibition (Escherichia coli [2]) was “inactive” and the “growth inhibition (GI)” value (Pseudomonas aeruginosa [4]) was “Toxic”. The Activity (Escherichia coli [5]) was “Non-toxic”, the Activity (Pseudomonas aeruginosa [24]) was “Toxic” and the “growth inhibition (GI)” value (Escherichia coli [7]) was “Toxic”. For the same compound, the inhibition (Pseudomonas aeruginosa [25]) was “inactive”.
`C/C(Br)=C1\C=CC(=O)O1` was tested, and the inhibition (Pseudomonas aeruginosa [26]) was “inactive”, the “growth inhibition (GI)” value (Pseudomonas aeruginosa [27]) was “Non-toxic” and the inhibition (Escherichia coli [10]) was “inactive”. For the same compound, the inhibition (Pseudomonas aeruginosa [28]) was “inactive”, the Activity [11] was “Active” and the inhibition (Pseudomonas aeruginosa [13]) was “inactive”. The inhibition [14] was “Active”, the “growth inhibition (GI)” value (Escherichia coli [29]) was “Non-toxic” and the inhibition at 300 µM (Escherichia coli [30]) was 26%. For the same compound, the inhibition (Escherichia coli [16]) was “inactive”, the inhibition at 300 µM (Escherichia coli [31]) was 34% and the “growth inhibition (GI)” value (Escherichia coli [32]) was “Non-toxic”. For the same compound, the inhibition (Pseudomonas aeruginosa [19]) was “inactive”, the inhibition [22] was 41% and the Ratio (Escherichia coli [23]) was 2.
